{"source": "patent US6984486B1", "about": "“Synthetic peptide of regulatory virus protein R (VPR) of human immunodeficiency virus type 1 (HIV-1) and the utilization thereof” (J. David Gladstone Institutes, priority 1999, dated 2006)", "key": {"[1]": {"tested_on": "vpr deficient HIV-1 mutant viruses", "conditions": "primary human monocytes/macrophages from different donors, vpr-deficient mutant NL(AD8)deltaR, two months", "excerpt": "Parallel cultures of differentiated MDM isolated from three different donors were infected with equal infectious doses of purified virus stocks of the macrophage-tropic virus NL4-3(AD8) as well as the vpr-deficient mutant NL(AD8)deltaR. Virus production was followed over a time frame of two months and release of virus associated RT-activity was plotted against time."}, "human PBMC": {"tested_on": "human PBMC", "conditions": "cultures of human PBMC infected with HIV-1NL4-3, 10 nM peptide", "excerpt": "(§1) Cultures of PHA- and IL-2-activated PBMCs were infected with equal infectious doses of the following virus stocks: HIV-1NL4-3 (A, B, C), NL4-3(AD8) (D) as well as the vpu-deficient mutant NL(AD8)-UDEL1 (E), and the vpr-deficient mutant NL(AD8)deltaR (F)."}, "HIV-1NL4-3": {"tested_on": "HIV-1NL4-3", "conditions": "cultures of human PBMC, 10 nM peptide", "excerpt": "as §1"}, "[2]": {"conditions": "compared with native viral Vpr"}}}
{"substance": "H-Met-Glu-Gln-Ala-Pro-Glu-Asp-Gln-Gly-Pro-Gln-Arg-Glu-Pro-Tyr-Asn-Gln-Trp-Thr-Leu-Glu-Leu-Leu-Glu-Glu-Leu-Lys-Ser-Glu-Ala-Val-Arg-His-Phe-Pro-Arg-Ile-Trp-Leu-His-Asn-Leu-Gly-Gln-His-Ile-Tyr-Glu-Thr-Tyr-Gly-Asp-Thr-Trp-Ala-Gly-Val-Glu-Ala-Ile-Ile-Arg-Ile-Leu-Gln-Gln-Leu-Leu-Phe-Ile-His-Phe-Arg-Ile-Gly-Cys-Arg-His-Ser-Arg-Ile-Gly-Val-Thr-Arg-Gln-Arg-Arg-Ala-Arg-Asn-Gly-Ala-Ser-Arg-Set-OH [sVpr^1-96]", "values": [{"measurement": "virus replication (release of virus associated RT-activity)", "setting": "[1]", "value": "activates virus replication"}, {"measurement": "number of live cells", "setting": "human PBMC", "value": "increases the number of live cells"}, {"measurement": "virus replication (virus associated RT-activity released into cell culture supernatant)", "setting": "HIV-1NL4-3", "value": "activates virus replication"}, {"measurement": "biological activities", "setting": "[2]", "value": "comparable to native viral Vpr"}]}
